Measurements: US11707437B2, “Topical formulations with resiniferatoxin nanoparticles and methods” (priority 2019, dated 2023)

Legend:
TRPV1 ion channel = TRPV1 ion channel (UniProt O35433); assay: patch clamp current recordings from HEK cells stably expressing TRPV1; type: cell-based; settings: for reversibility of current response by washout: FIG. 3
Description: Y axis is current amplitude and X-axis is time indicated by a 2 min bar.

[1] = test system: TRPV1 expressing nerve terminals; settings: intrathecal administration, STZ-induced diabetes; cited from earlier work
[2] = intraperitoneally in rats, over a period of 9 months; cited from earlier work
TRPV1 receptor = TRPV1 receptor (Homo sapiens, UniProt Q8NER1); settings: cited from earlier work
[3] = test system: TRPV1 positive peripheral terminals; settings: local intra-dermal administration, rodents; cited from earlier work

Sequence of TRPV1 receptor (Q8NER1 whole entry): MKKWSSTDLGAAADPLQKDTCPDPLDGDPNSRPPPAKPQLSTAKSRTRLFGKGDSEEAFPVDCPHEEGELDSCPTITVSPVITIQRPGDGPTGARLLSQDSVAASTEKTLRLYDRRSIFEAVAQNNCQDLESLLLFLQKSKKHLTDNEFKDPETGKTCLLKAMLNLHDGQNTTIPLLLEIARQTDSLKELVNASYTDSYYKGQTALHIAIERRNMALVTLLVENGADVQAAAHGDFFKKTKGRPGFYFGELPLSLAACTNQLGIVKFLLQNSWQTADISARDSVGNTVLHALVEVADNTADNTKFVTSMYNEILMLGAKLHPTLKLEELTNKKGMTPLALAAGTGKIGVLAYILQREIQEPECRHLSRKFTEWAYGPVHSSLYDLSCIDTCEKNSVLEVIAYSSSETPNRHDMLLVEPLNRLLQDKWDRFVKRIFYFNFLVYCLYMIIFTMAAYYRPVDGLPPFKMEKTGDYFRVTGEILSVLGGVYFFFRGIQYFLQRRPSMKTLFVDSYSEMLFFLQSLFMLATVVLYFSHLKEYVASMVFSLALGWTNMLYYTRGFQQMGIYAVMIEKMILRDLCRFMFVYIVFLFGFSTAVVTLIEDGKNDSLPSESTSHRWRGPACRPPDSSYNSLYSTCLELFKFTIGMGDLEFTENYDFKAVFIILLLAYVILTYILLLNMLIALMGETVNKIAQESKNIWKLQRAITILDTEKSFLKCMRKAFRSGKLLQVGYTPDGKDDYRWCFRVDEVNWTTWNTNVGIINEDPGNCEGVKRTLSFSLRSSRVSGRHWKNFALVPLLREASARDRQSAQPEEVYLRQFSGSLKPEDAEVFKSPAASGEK

Structure (SMILES): C=C(C)[C@]12C[C@@H](C)[C@@]34O[C@](Cc5ccccc5)(O[C@@H]1[C@@H]3C=C(COC(=O)Cc1ccc(O)c(OC)c1)C[C@]1(O)C(=O)C(C)=C[C@@H]41)O2 [RTX, Resiniferatoxin]
- current activation (TRPV1 ion channel; 7.9 fM to 15.8 pM, after 100 nM capsaicin, rate of activation concentration dependent): activated currents maximally
- reversibility of current response by washout (TRPV1 ion channel; RTX 7.9 fM): could not be reversed by washout
- concentrations activating TRPV1 ion channels relative to capsaicin (TRPV1 ion channel; RTX at fM to pM concentrations, FIG. 2): five to nine orders of magnitude lower than capsaicin
- effect on thermal hyperalgesia [1]: reversed thermal hyperalgesia
- dose administered without observable side effects [2]: ≤ 0.2 mg/kg
- concentrations that fully activate TRPV1 receptor (TRPV1 receptor): femtomolar-picomolar range
- pain sensitivity [3]: complete loss of pain sensitivity

Structure (SMILES): COc1cc(CNC(=O)CCCC/C=C/C(C)C)ccc1O [capsaicin]
- reversibility of current response by washout (TRPV1 ion channel; capsaicin 100 nM): could be reversed by washout
